Consider 1 compound from publication PMC11431997, “Baicalin Inhibits FIPV Infection In Vitro by Modulating the PI3K-AKT Pathway and Apoptosis Pathway” (International Journal of Molecular Sciences, 2024).

Test [1] deals with FIPV (BJ-01). As to the kind of experiment: Impact of the compound on FIPV replication (compound added after infection, CCK-8). The test is classed as cell-based, feline infectious peritonitis virus. As to the method: According to previous methods, CRFK cells were seeded in 96-well cell culture plates at a density of 1 × 10^4 cells/well and cultured at 37 °C in 5% CO2 until the cell density was greater than 90%. Then, the medium was discarded, and the cells were washed twice with PBS. FIPV was first added into 96-well cell culture plates at 100 μL/well then incubated at 37 °C and 5% CO2 for 1, 2, 4, 6, 8, 10, 12, and 14 h, respectively. After that, the viral solution was discarded and washed with PBS twice and then the compound was added at 100 μL/well and incubated at 37 °C and 5% CO2 (at the same time, a cell control group with only 100 μL of MM and a viral control group with only 100 μL of FIPV were added). There were 3 replicate wells for each compound and group. After the CPE of the viral control group reached more than 80%, the liquid in the culture plate was removed and washed twice with PBS. Afterwards, the IR of the compounds against the virus was computed according to the directions of the Cell Counting Kit-8.

Test [2] has as its system FIPV (BJ-01). The test is described as follows: Cellular viral load by qPCR (FIPV-N gene). It is filed as cell-based, feline infectious peritonitis virus. As to the method: CRFK cells were seeded in a 96-well cell culture plate at a density of 1 × 10^4 cells/well and cultured at 37 °C in 5% CO2 until the cell density was greater than 90%. After the cells were washed twice with PBS, 50 μL of compound and 50 μL of FIPV were added to each well simultaneously, and the plates were incubated at 37 °C and 5% CO2 for 12, 24, 36, 48, 60, and 72 h (at the same time, a cell control group with only 100 μL of MM and a viral control group with only 100 μL of FIPV were added). There were 3 replicate wells for each group and incubation time. After the liquid in the plate was discarded, the cells were washed twice with PBS. Then, the cells were digested by adding tryptic digest at 30 μL/well, the cell suspension was collected, and the cell precipitates were collected by centrifugation at 3000 rpm for 1 min. Total cellular RNA was extracted after the cell precipitates were resuspended in PBS according to the instructions of the FastPure Viral DNA/RNA Mini Kit Pro (Vazyme, Nanjing, China). Then, reverse transcription was performed using HiScript IV RT SuperMix for qPCR (+gDNA wiper) (Vazyme, Nanjing, China). The sequences of the primers used for the detection of the FIPV-N (GenBank: MK840958.1) were […] (F: 5′→3′) and […] (R: 5′→3′). The sequences of the primers used for the detection of the GAPDH genes were […] (F: 5′→3′) and […] (R: 5′→3′). […]

Test [3] has as its system PI3K-AKT signaling pathway and apoptosis pathway. The test is described as follows: Western blot of key proteins in FIPV-infected CRFK cells. It is filed as cell-based, feline. The conditions noted are these: treatment group vs FIPV group, p < 0.05. As to the method:
Based on the results of the above experiments, the cell precipitates were collected according to the method in Section 4.6 and grouped as described in Section 4.7. After infection, the cells were collected at the appropriate time of infection, and the proteins were extracted from the samples according to the instructions of a total protein extraction kit (strong) (Solarbio, Beijing, China). Afterwards, the protein concentration of the extracted samples was determined separately using a BCA Protein Quantification Kit (Vazyme, Nanjing, China), and all sample proteins were diluted to the same concentration using PBS. The diluted protein samples were mixed with NuPAGE LDS Sample Buffer (4×) (Invitrogen, Waltham, MA, USA) at a ratio of 1:4 and heated at 70 °C for 10 min to denature the proteins. After that, the denatured proteins were added to 10 wells of 12% sodium dodecyl sulfate-polyacrylamide gel electrophoresis (SDS-PAGE) (Vazyme, Nanjing, China) at 20 μg/well, after which the total proteins were separated on NuPAGE MES SDS Running Buffer (Invitrogen, CA, USA). After separation, proteins were transferred from the gel onto 0.45 μm polyvinylidene fluoride (PVDF) membranes (Millipore, Billerica, MA, USA) using WB Transfer Buffer (Solarbio, Beijing, China). After that, the PVDF membranes were blocked with 5% skim milk (Solarbio, Beijing, China) at room temperature for 2 h. At the end of the closure, the membranes were washed with TBST (6 times, each time for 5 min, as described below); then. the primary antibodies were added and incubated at 4 °C overnight. The next day, the PVDF membranes were washed with TBST, the primary antibodies were removed, and the secondary antibodies were added and incubated at room temperature for 2 h (the antibody information and dilutions are shown in Section 4.1.4). At the end of the incubation, the PVDF membranes were washed with TBST, after which the protein bands were exposed and imaged using a SuperPico ECL Chemiluminescence Kit (Vazyme, Nanjing, China) and an Al680 imaging system (GE, Boston, MA, USA). The gray values of the WB bands were analyzed using ImageJ 1.54f, and the relative expression was calculated using GAPDH as an internal reference protein.

As for `O=C(O)[C@H]1O[C@@H](Oc2cc3oc(-c4ccccc4)cc(=O)c3c(O)c2O)[C@H](O)[C@@H](O)[C@@H]1O` [Baicalin], the “inhibition rate on FIPV (replication blocking)” value in test [1] (baicalin added after 10 h of infection) was “significantly reduced”. Moreover, in test [1] (baicalin added within 8 h of FIPV infection of CRFK cells), the “inhibition rate on FIPV (replication blocking)” value is “more than 50%”. Moreover, in test [2] (48 h compared with 36 h of baicalin treatment, p < 0.05), the “FIPV-N gene copy number” value is listed as “significantly decreased”. Also, in test [2] (FIPV-infected CRFK cells, qPCR at 12-72 h), the “time of peak FIPV-N gene copy number after baicalin treatment” value worked out at 36 h. In addition, in test [3], the “Bax relative expression (WB, GAPDH reference)” value is “significantly downregulated”; the “Bcl-2/Bax relative expression (WB)” value is on record as “significantly upregulated”; the “Bcl-2 relative expression (WB, GAPDH reference)” value is on record as “significantly upregulated”; the “EGFR relative expression (WB, GAPDH reference)” value is reported as “significantly upregulated”. For the same compound, in test [3], the “PI3K relative expression (WB, GAPDH reference)” value is “significantly upregulated” and the “cleaved caspase 9 relative expression (WB, GAPDH reference)” value was “significantly downregulated”.
